Source: the Kinase Knowledgebase extract (Sharma et al. 2016)

Legend:
[1] = target: PIK3CG (human) (UniProt P48736); experiment: Assessment of PIK3CG Kinase Activity
[2] = target: PIK3CA (human) (UniProt P42336); experiment: Assessment of PIK3CA Kinase Activity
[3] = target: PIK3CD (Human) (UniProt O00329); experiment: Assessment of PIK3CD Kinase Activity
PIK3CD (Human), sequence (O00329 whole entry, looked up): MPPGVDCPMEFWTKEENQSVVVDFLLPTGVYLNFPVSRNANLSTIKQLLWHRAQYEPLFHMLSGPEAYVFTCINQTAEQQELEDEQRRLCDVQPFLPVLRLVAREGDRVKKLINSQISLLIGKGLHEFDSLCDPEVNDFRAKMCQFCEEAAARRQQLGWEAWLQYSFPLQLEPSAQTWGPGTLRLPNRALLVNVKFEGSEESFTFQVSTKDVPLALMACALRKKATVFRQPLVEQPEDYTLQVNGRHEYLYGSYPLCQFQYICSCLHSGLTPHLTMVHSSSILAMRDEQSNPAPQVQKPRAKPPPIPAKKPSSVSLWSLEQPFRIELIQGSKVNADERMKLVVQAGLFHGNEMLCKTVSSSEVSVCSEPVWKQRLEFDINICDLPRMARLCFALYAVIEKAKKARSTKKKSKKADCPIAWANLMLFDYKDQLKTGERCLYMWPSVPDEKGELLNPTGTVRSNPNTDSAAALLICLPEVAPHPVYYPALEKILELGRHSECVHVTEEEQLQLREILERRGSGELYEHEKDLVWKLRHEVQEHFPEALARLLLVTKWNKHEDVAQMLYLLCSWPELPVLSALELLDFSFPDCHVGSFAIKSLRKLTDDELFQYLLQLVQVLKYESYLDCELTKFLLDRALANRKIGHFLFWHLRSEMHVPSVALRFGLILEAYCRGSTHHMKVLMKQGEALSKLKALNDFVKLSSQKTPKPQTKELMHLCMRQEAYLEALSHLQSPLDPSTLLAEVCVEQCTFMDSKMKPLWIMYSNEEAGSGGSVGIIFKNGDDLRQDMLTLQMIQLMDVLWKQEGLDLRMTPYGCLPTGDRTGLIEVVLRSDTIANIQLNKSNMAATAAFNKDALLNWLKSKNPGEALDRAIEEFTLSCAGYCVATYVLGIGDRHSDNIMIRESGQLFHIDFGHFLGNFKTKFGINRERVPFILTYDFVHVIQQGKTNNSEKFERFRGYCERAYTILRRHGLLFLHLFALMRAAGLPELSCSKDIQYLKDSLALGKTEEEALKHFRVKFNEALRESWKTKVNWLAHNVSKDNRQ

PIK3CA (human), sequence (P42336 whole entry, looked up): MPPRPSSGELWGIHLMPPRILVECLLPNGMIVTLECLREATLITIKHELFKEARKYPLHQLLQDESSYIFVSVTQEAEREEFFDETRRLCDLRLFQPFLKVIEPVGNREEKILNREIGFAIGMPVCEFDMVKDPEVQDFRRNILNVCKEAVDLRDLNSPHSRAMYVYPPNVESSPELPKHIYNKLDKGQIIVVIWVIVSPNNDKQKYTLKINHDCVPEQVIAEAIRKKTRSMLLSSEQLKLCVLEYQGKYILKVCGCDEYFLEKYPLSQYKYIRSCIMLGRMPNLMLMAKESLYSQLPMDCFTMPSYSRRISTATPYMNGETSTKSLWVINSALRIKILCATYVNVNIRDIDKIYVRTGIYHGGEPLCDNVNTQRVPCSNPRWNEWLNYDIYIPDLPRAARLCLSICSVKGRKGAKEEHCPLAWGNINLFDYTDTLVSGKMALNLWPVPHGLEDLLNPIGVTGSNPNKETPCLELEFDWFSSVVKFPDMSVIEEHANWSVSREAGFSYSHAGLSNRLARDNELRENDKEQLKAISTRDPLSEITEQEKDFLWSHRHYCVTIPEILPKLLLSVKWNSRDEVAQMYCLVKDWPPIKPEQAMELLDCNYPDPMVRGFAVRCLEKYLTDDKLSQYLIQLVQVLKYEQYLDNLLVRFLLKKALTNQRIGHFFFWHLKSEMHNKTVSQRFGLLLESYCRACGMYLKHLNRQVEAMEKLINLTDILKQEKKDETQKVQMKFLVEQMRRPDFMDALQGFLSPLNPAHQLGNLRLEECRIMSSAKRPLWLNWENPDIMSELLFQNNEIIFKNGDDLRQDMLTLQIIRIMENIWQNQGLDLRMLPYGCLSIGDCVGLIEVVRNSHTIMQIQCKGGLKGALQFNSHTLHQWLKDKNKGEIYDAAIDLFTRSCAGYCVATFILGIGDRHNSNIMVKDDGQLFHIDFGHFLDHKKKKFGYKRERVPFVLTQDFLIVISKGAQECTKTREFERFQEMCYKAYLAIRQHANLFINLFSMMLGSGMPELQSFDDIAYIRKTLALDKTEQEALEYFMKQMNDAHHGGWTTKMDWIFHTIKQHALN
PIK3CG (human), sequence (P48736 whole entry, looked up): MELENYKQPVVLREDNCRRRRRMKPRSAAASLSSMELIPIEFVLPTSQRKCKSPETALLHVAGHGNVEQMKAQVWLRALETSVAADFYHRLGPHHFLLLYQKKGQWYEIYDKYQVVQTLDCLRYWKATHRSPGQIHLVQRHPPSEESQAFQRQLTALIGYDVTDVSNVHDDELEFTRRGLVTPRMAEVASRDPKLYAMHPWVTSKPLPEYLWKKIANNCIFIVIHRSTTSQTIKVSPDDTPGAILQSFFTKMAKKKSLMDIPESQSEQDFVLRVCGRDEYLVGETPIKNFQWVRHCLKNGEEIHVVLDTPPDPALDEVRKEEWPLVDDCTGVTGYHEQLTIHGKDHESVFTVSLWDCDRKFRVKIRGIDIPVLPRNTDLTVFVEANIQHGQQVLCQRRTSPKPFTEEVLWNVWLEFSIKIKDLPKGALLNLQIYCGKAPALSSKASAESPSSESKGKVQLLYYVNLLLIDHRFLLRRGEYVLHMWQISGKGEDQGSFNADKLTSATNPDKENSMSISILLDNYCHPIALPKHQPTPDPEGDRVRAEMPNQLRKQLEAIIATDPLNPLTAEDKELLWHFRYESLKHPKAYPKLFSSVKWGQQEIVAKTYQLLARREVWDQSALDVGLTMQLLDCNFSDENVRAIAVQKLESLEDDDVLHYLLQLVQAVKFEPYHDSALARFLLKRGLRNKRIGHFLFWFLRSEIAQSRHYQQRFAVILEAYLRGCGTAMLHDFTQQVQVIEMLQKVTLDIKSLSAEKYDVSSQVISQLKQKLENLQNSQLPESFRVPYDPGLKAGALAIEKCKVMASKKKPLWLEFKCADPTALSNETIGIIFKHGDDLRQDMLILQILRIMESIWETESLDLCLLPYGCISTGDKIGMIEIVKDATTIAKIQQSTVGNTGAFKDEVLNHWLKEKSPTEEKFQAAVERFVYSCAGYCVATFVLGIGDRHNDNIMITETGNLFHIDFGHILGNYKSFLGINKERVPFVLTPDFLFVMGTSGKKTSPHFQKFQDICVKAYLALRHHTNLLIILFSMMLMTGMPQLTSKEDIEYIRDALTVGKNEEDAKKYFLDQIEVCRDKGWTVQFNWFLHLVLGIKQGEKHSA

Structure (SMILES) | IC50 [1] [µM] | IC50 [2] [µM] | IC50 [3] [µM]
CCc1cnc(CCNC(=O)Nc2nc(C)c(-c3ccc(S(C)(=O)=O)c(-n4ccnc4)c3)s2)o1 | 0.032 | 0.156 | 0.17
Cc1nc(NC(=O)N2CC(C#N)C2)sc1-c1ccc(S(C)(=O)=O)c(F)c1 | 0.195 | 0.19 | –
Cc1nc(NC(=O)NCCS(C)(=O)=O)sc1-c1ccc(F)c(S(C)(=O)=O)c1 | 0.177 | 0.218 | 0.637
Cc1nc(NC(=O)NCCC(=O)OC(C)(C)C)sc1-c1ccc(S(C)(=O)=O)c(C(F)(F)F)c1 | 0.213 | 2.06 | 2.62

The remaining lines, values ahead:

IC50 [1] [µM] | IC50 [2] [µM] | IC50 [3] [µM] | Structure (SMILES)
0.012 | 0.009 | 0.028 | Cc1nc(NC(=O)NCC(=O)N(C)C)sc1-c1ccc(S(C)(=O)=O)c(F)c1
0.047 | 0.035 | 0.18 | Cc1nc(NC(=O)NCCO)sc1-c1ccc(S(C)(=O)=O)c(C(F)(F)F)c1
0.016 | 3.02 | 0.626 | Cc1nc(NC(=O)NCCC(=O)OC(C)(C)C)sc1-c1ccc(S(C)(=O)=O)c(F)c1
0.074 | 0.839 | 3.79 | CCc1nnc(CCNC(=O)Nc2nc(C)c(-c3ccc(S(C)(=O)=O)c(F)c3)s2)o1
0.038 | 0.934 | 2.15 | CCn1cnc(CCNC(=O)Nc2nc(C)c(-c3ccc(S(C)(=O)=O)c(F)c3)s2)c1
0.044 | 1.5 | 0.42 | Cc1nc(NC(=O)NCCc2cn(C(C)C)cn2)sc1-c1ccc(S(C)(=O)=O)c(F)c1
